These results are taken from publication PMC4823711, “Allosteric Partial Inhibition of Monomeric Proteases. Sulfated Coumarins Induce Regulation, not just Inhibition, of Thrombin” (Scientific Reports, 2016).

In experiment [1] the target is thrombin (Homo sapiens, UniProt P00734). In words: Chromogenic substrate hydrolysis assay, thrombin inhibition (Spectrozyme TH). The format is biochemical. Conditions: for thrombin inhibition (in words): up to 250 μM; for efficacy of thrombin inhibition (ΔY) / IC50: pH 7.4, 25 °C; for efficacy of thrombin inhibition (ΔY): at saturation; for IC50: read-out: IC50 against thrombin. On the set-up: 6 nM plasma α-thrombin; purchased Haematologic Technologies (Essex Junction, VT). As for the experimental part:
Chromogenic substrate hydrolysis assay was used to measure potency of inhibition, as previously reported. The assay was performed using Flexstation III (Molecular Devices, Sunnyvale, CA) by monitoring substrate hydrolysis at 405 nm. For thrombin and its mutants, 180 μL of buffer (20 mM Tris-HCl, 100 mM NaCl, 2.5 mM CaCl2, 0.1% (polyethylene glycol) PEG 8000, pH 7.4) was added to each well followed by 5 μL of 240 nM thrombin and 10 μL of sulfated coumarin in DMSO to give 0.002 to 250 μM final concentration (or 10 μL of DMSO alone). After incubation for 10 min at 25 °C, 5 μL of 2 mM Spectrozyme TH was added to each well simultaneously and allowed to react for 60 seconds at 25 °C while simultaneously monitoring the reaction to obtain the rate of increase in A405. Identical experimental conditions were used for reactions in the presence of antithrombin, except for 100 nM of antithrombin added prior to the addition of the substrate.
For factor XIa inhibition studies, 85 μL of buffer (50 mM Tris-HCl, 150 mM NaCl, 0.1% PEG 8000, 0.02% Tween 80, pH 7.4) was added to each well, followed by 7 μL of 15.3 nM enzyme and 3 μL of sulfated coumarin (3.75–500 μM final concentration) and incubated for 10 min at 37 °C. After the incubation period, 5 μL of 6.9 mM S-2366 was added to each well simultaneously and allowed to react for 300 sec at 37 °C. For factor Xa assay, 180 μL of buffer (20 mM Tris-HCl, 100 mM NaCl, 2.5 mM CaCl2, 0.1% PEG 8000, 0.02% Tween 80, pH 7.4) was added to each well followed by 5 μL of 43.5 nM enzyme, 10 μL of sulfated coumarin (0.002–250 μM final concentration). After a 10 min incubation, 5 μL of 5 mM Spectrozyme FXa was added to each well simultaneously and allowed to react for 300 seconds at 37 °C. The slopes generated from each experiment were used to calculate the fractional residual activity (Y) at each concentration of the inhibitor, and analyzed using logistic equation 1, in which YM is the maximum efficacy, Y0 is minimum efficacy and HS is the Hill slope.

Experiment [2] has as its target thrombin. On the set-up: method as in PMID 2007587. Conditions: read-out: affinity for thrombin; cited from earlier work.
In experiment [3] the test system is thrombin. Conditions: cited from earlier work; for efficacy of thrombin inhibition (ΔY): orthosteric inhibitors.

“Also recorded” adds a separate entry of the source. Some results are limits rather than exact numbers.

Take `O=c1oc2ccc(OS(=O)(=O)O)cc2c(-c2ccccc2)c1-c1ccc(Cl)cc1` [2l]: the “thrombin inhibition (in words)” value on thrombin [1] is reported as “not all 4-aryl derivatives were active”.

As to Heparin hexasaccharide, the Kd at thrombin [2] was roughly 8 µM. In addition, the “thrombin inhibition (in words)” value with thrombin [3] is “not an inhibitor”.

In the case of `O=c1oc2cc(OS(=O)(=O)O)ccc2c(-c2ccccc2)c1-c1cccc(Cl)c1` [2e], the “thrombin inhibition (in words)” value on thrombin [1] is listed as “active”.

For `O=c1oc2cc(OS(=O)(=O)O)ccc2c(-c2ccccc2)c1-c1ccc(Cl)cc1Cl` [2k], the “thrombin inhibition (in words)” value on thrombin [1] is given as “active”.

Broadly, the IC50 is the concentration needed to halve the response being measured. `O=c1oc2cc(OCCCn3cc(COc4ccc5c(-c6ccccc6)c(-c6ccc(OS(=O)(=O)O)cc6)c(=O)oc5c4)nn3)ccc2c(-c2ccccc2)c1-c1ccc(OS(=O)(=O)O)cc1` [3a]: on thrombin [1], the “efficacy of thrombin inhibition (ΔY)” value was 73% and the half-inhibitory concentration (IC50) was no more than 1 µM.

In the case of `O=c1oc2cc(OS(=O)(=O)O)ccc2c(Cc2ccc(Cl)cc2)c1-c1ccccc1` [2p], the “thrombin inhibition (in words)” value at thrombin [1] was “active”.

As to `O=c1oc2cc(OS(=O)(=O)O)ccc2c(-c2ccccc2)c1-c1ccc(O)c(OS(=O)(=O)O)c1` [2w], the “thrombin inhibition (in words)” value on thrombin [1] is “not all 4-aryl derivatives were active”.

As to `[H]/N=C(/N)c1ccc(NCc2nc3cc(C(=O)N(CCC(=O)O)c4ccccn4)ccc3n2C)cc1` [dabigatran], in the experiment on thrombin [3], the “efficacy of thrombin inhibition (ΔY)” value is recorded as 100%.

As for `O=c1oc2cc(OS(=O)(=O)O)ccc2c(-c2ccccc2)c1-c1ccccc1Cl` [2d], on thrombin [1], the “thrombin inhibition (in words)” value is on record as “not all 4-aryl derivatives were active”.

`O=c1oc2cc(OS(=O)(=O)O)ccc2c(-c2ccccc2)c1-c1ccc(Br)cc1` [2o]: the “thrombin inhibition (in words)” value on thrombin [1] was “not all 4-aryl derivatives were active”.

Regarding `Cc1ccc(C(=O)Nc2ccc(S(=O)(=O)O)c3cc(S(=O)(=O)O)cc(S(=O)(=O)O)c23)cc1NC(=O)c1cccc(NC(=O)Nc2cccc(C(=O)Nc3cc(C(=O)Nc4ccc(S(=O)(=O)O)c5cc(S(=O)(=O)O)cc(S(=O)(=O)O)c45)ccc3C)c2)c1` [suramin], in the experiment with thrombin [3] (read-out: IC50 of thrombin inhibition), the half-inhibitory concentration (IC50) was 20 to 40 µM.

On to `CC1CNc2c(cccc2S(=O)(=O)N[C@@H](CCCNC(=N)N)C(=O)N2CC[C@@H](C)C[C@@H]2C(=O)O)C1` (stereo partly shown) [argatroban], for which, in the experiment on thrombin [3], the “efficacy of thrombin inhibition (ΔY)” value is listed as 100%.

On to `O=c1oc2cc(OCCCCn3cc(COc4ccc5c(-c6ccccc6)c(-c6ccc(OS(=O)(=O)O)cc6)c(=O)oc5c4)nn3)ccc2c(-c2ccccc2)c1-c1ccc(OS(=O)(=O)O)cc1` [3b], for which, on thrombin [1], the “efficacy of thrombin inhibition (ΔY)” value is reported as 58% and the IC50 was no more than 1 µM.

Turning to `O=c1oc2c(Cl)cc(Cl)cc2c(-c2ccccc2)c1-c1ccc(OS(=O)(=O)O)cc1` [2x], the “thrombin inhibition (in words)” value on thrombin [1] is given as “not all 4-aryl derivatives were active”.

Regarding `O=c1oc2cc(OCCCn3cc(COc4ccc5cc(-c6ccc(OS(=O)(=O)O)cc6)c(=O)oc5c4)nn3)ccc2cc1-c1ccc(OS(=O)(=O)O)cc1` [3c], the “efficacy of thrombin inhibition (ΔY)” value at thrombin [1] stood at 60%.

As for `O=c1oc2cc(OS(=O)(=O)O)ccc2c(-c2ccccc2)c1-c1ccc(OS(=O)(=O)O)cc1` [2y], the “thrombin inhibition (in words)” value at thrombin [1] is recorded as “not all 4-aryl derivatives were active; also recorded: complete absence of inhibition potential”.
